Assay results reported in ChEMBL document CHEMBL3639144, “Glycoside derivatives and uses thereof” (2013).
pIC50: −log10 of the molar value.

Legend:
[1] = biological target: T1, Sodium/glucose cotransporter 2 (Homo sapiens, UniProt P31639); experiment: (§1) These cell lines transport 14C-labelled alpha-methyl-glucopyranoside (14C-AMG, Amersham) into the interior of the cell in sodium-dependent manner.The SGLT-2 assay is carried out as follows: CHO-hSGLT2 cells are cultivated in Ham's F12 Medium (BioWhittaker) with 10% foetal calf serum and 250 ug/mL zeocin (Invitrogen), and HEK293-hSGLT2 cells are cultivated in DMEM medium with 10% foetal calf serum and 250 ug/mL zeocin (Invitrogen). The cells are detached from the culture flasks by washing twice with PBS.; assay type: cell-based
T1 sequence (P31639 whole entry): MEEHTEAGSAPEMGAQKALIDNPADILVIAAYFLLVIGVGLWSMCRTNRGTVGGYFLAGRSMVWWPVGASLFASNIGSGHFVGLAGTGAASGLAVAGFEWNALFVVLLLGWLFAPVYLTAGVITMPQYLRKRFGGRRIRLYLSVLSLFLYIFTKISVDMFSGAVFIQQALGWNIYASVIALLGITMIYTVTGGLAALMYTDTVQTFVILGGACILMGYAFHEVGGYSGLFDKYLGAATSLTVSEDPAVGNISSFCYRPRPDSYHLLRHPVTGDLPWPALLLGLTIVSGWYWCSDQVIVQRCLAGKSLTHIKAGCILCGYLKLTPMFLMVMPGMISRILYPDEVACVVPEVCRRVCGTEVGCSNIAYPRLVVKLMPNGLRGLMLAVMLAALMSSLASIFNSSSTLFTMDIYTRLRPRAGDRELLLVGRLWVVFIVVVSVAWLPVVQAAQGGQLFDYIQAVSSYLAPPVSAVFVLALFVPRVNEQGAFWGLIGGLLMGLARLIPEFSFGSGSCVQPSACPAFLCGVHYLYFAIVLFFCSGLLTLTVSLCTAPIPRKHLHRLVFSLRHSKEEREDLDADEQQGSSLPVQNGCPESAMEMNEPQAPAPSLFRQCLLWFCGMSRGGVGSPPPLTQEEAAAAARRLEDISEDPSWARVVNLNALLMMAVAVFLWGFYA

[2] = biological target: T2, Sodium/glucose cotransporter 1 (Homo sapiens, UniProt P13866); experiment: as §1; assay type: cell-based
T2 sequence (P13866 whole entry): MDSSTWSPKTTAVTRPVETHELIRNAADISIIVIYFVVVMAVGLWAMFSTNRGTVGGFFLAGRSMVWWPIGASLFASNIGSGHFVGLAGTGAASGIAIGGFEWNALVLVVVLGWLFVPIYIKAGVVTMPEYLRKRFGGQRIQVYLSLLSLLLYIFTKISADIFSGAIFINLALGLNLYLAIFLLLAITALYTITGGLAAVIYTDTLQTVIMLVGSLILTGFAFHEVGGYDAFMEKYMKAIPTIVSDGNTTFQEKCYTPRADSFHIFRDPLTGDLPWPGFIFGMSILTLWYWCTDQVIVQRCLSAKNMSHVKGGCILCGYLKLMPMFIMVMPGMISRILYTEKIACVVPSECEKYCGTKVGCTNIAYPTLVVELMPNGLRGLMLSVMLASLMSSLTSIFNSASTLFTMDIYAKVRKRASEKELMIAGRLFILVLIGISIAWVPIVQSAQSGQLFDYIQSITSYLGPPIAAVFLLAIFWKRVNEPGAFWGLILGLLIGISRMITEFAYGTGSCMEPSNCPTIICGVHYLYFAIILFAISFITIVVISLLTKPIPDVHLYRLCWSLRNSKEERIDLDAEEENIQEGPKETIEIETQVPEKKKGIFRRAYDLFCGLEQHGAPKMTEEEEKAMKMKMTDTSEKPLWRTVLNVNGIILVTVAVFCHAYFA

Structure (SMILES)	pIC50 [1]	pIC50 [2]
CCc1ccc([C@@H]2O[C@H](COP(=O)(O)O)[C@@H](O)[C@H](O)[C@H]2O)cc1Cc1ccc2c(c1)OCCO2	8.62	7.05
CCc1ccc([C@@H]2O[C@H](COC(=O)OC(C)(C)C)[C@@H](O)[C@H](O)[C@H]2O)cc1Cc1ccc2c(c1)OCCO2	7.05	6.73
